Assay [1] addresses T1, human CB1 receptors (Homo sapiens, UniProt P21554).
T1 construct: expressed in transfected cells; host or cells: CHO cells
Put plainly: functional cAMP assay, CHO cells expressing human CB1. It is filed as cell-based. As for the experimental part:
CHO cells expressing human CB1 or CB2 receptors are seeded 17-24 hours prior to the experiment 50.000 cells per well in a black 96 well plate with flat clear bottom (Corning Costar #3904) in DMEM (Invitrogen No. 31331), 1×HT supplement, with 10% fetal calf serum and incubated at 5% CO2 and 37° C. in a humidified incubator. The growth medium was exchanged with Krebs Ringer Bicarbonate buffer with 1 mM IBMX and incubated at 30° C. for 30 min. Compounds were added to a final assay volume of 100 μl and incubated for 30 min at 30° C. Using the cAMP-Nano-TRF detection kit the assay (Roche Diagnostics) was stopped by the addition of 50 μl lysis reagent (Tris, NaCl, 1.5% Triton X100, 2.5% NP40, 10% NaN3) and 50 μl detection solutions (20 μM mAb Alexa700-cAMP 1:1, and 48 μM Ruthenium-2-AHA-cAMP) and shaken for 2 h at room temperature. The time-resolved energy transfer is measured by a TRF reader (Evotec Technologies GmbH), equipped with a ND:YAG laser as excitation source. The plate is measured twice with the excitation at 355 nm and at the emission with a delay of 100 ns and a gate of 100 ns, total exposure time 10 s at 730 (bandwidth 30 nm) or 645 nm (bandwidth 75 nm), respectively. The FRET signal is calculated as follows: FRET=T730-Alexa730-P(T645-B645) with P=Ru730-B730/Ru645-B645, where T730 is the test well measured at 730 nM, T645 is the test well measured at 645 nm, B730 and B645 are the buffer controls at 730 nm and 645 nm, respectively. cAMP content is determined from the function of a standard curve spanning from 10 μM to 0.1 nM cAMP.
EC50 values were determined using Activity Base analysis (ID Business Solution, Limited). The EC50 values for a wide range of cannabinoid agonists generated from this assay were in agreement with the values published in the scientific literature.
(In general: cAMP levels reflect the balance of adenylyl cyclase and phosphodiesterase activity.)

The target of assay [2] is T2, human CB2 receptors (Homo sapiens, UniProt P34972).
T2 construct: expressed in transfected cells; host or cells: CHO cells
T2 sequence (P34972 whole entry): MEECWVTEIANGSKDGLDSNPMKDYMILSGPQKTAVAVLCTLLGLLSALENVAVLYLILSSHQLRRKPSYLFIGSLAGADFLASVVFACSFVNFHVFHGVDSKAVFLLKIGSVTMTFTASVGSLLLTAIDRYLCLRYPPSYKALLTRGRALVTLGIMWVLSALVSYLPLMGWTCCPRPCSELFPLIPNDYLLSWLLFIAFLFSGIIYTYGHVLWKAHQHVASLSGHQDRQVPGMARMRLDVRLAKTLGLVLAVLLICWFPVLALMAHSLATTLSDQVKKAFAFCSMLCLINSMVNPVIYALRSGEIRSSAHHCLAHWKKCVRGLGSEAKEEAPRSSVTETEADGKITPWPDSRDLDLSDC
Put plainly: functional cAMP assay, CHO cells expressing human CB2. The format is cell-based. On the procedure:
The growth medium was exchanged with Krebs Ringer Bicarbonate buffer with 1 mM IBMX and incubated at 30° C. for 30 min. Compounds were added to a final assay volume of 100 μl and incubated for 30 min at 30° C. […] The time-resolved energy transfer is measured by a TRF reader (Evotec Technologies GmbH), equipped with a ND:YAG laser as excitation source. The plate is measured twice with the excitation at 355 nm and at the emission with a delay of 100 ns and a gate of 100 ns, total exposure time 10 s at 730 (bandwidth 30 nm) or 645 nm (bandwidth 75 nm), respectively.
EC50 values were determined using Activity Base analysis (ID Business Solution, Limited).

Setting [3] is: CHO cells expressing human CB1, read-out: Ec50:CB1 - hu cAMP.
Setting [4] is: CHO cells expressing human CB2, read-out: Ec50:CB2 - hu cAMP.

Our source for the EC50 values is patent publication US9090615B2, “Adamantyl derivatives as cannabinoid receptor 2 agonists” (Hoffmann-La Roche Inc., priority 2012, dated 2015).

Where two headings read alike, the source gives them in different places. Where only a bound is given, the exact number is not on record here.

The term EC50 denotes the midpoint of the concentration-response curve.

T1 sequence (P21554 whole entry): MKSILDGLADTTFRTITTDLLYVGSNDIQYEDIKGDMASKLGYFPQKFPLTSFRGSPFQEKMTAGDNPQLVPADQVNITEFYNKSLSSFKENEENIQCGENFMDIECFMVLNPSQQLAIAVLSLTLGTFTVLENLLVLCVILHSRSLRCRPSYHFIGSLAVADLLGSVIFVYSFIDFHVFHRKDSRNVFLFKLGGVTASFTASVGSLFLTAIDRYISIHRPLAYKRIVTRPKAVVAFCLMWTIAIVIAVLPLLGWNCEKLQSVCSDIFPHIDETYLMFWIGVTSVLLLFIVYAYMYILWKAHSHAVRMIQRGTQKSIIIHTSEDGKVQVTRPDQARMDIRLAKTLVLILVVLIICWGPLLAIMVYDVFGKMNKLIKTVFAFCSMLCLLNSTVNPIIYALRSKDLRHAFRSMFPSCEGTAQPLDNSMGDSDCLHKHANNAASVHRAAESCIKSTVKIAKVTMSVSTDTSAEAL

In the case of `O=C(N1CCc2ccccc2C1)C12CC3CC(CC(C3)C1)C2` [Example 1, Adamantan-1-yl-(3,4-dihydro-1H-isoquinolin-2-yl)-methanone], the figures for the 50% effective concentration (EC50) in assay [1] (setting [3]) and in assay [2] (setting [4]) were more than 10000 nM and 69.4 nM, respectively.
For `O=C(N1CCCc2ccccc21)C12CC3CC(CC(C3)C1)C2` [Example 2, Adamantan-1-yl-(3,4-dihydro-2H-quinolin-1-yl)-methanone], the EC50 in assay [2] (setting [4]) is 71.6 nM.
Turning to `O=C1CCN(C(=O)C23CC4CC(CC(C4)C2)C3)c2ccccc21` [Example 3, 1-(Adamantane-1-carbonyl)-2,3-dihydro-1H-quinolin-4-one], the figures for the concentration for a half-maximal effect (EC50) in assay [1] (setting [3]) and in assay [2] (setting [4]) were more than 10000 nM and 330 nM, respectively.
The like results for `CC(C)(C)NC(=O)C1CCN(C(=O)C23CC4CC(CC(C4)C2)C3)c2ccccc21` (stereo not drawn) [Example 4, 1-(Adamantane-1-carbonyl)-1,2,3,4-tetrahydro-quinoline-4-carboxylic acid tert-butylamide] were, in that order, more than 10000 nM and 445 nM.
Take `COC(=O)C1Cc2ccccc2N(C(=O)C23CC4CC(CC(C4)C2)C3)C1` (stereo not drawn) [Example 5, 1-(Adamantane-1-carbonyl)-1,2,3,4-tetrahydro-quinoline-3-carboxylic acid methyl ester]: the concentration giving a half-maximal response (EC50) in assay [1] (setting [3]) is more than 10000 nM; in assay [2] (setting [4]), 221 nM.
With `CC(C)C1(CO)CCN(C(=O)C23CC4CC(CC(C4)C2)C3)c2ccccc21` (stereo not drawn) [Example 6, Adamantan-1-yl-(4-hydroxymethyl-4-isopropyl-3,4-dihydro-2H-quinolin-1-yl)-methanone], the EC50 in assay [1] (setting [3]) is more than 10000 nM; in assay [2] (setting [4]) it was 400 nM.
The like results for `O=C(N1CCOc2ccccc21)C12CC3CC(CC(C3)C1)C2` [Example 7, Adamantan-1-yl-(2,3-dihydro-benzo[1,4]oxazin-4-yl)-methanone] were, in that order, more than 10000 nM and 180 nM.
`Cc1cccc2c1N(C(=O)C13CC4CC(CC(C4)C1)C3)CCC2` [Example 8, Adamantan-1-yl-(8-methyl-3,4-dihydro-2H-quinolin-1-yl)-methanone]: the results for the half-maximal effective concentration (EC50) in assay [1] (setting [3]) and in assay [2] (setting [4]) were more than 10000 nM and 277 nM, respectively.
With `O=C(N1CCC(O)c2ccccc21)C12CC3CC(CC(C3)C1)C2` (stereo not drawn) [Example 9, Adamantan-1-yl-(4-hydroxy-3,4-dihydro-2H-quinolin-1-yl)-methanone], the results for the EC50 in assay [1] (setting [3]) and in assay [2] (setting [4]) were more than 10000 nM and 265 nM, respectively.
The like results for `CC1Cc2ccccc2N1C(=O)C12CC3CC(CC(C3)C1)C2` (stereo not drawn) [Example 10, Adamantan-1-yl-(2-methyl-2,3-dihydro-indol-1-yl)-methanone] were, in that order, more than 10000 nM and 261 nM.
With `O=C(N1CCc2ccccc21)C12CC3CC(CC(C3)C1)C2` [Example 11, Adamantan-1-yl-(2,3-dihydro-indol-1-yl)-methanone], in assay [2] (setting [4]), the EC50 was 23.2 nM.
As to `CCOC1CCN(C(=O)C23CC4CC(CC(C4)C2)C3)c2ccccc21` (stereo not drawn) [Example 12, Adamantan-1-yl-(4-ethoxy-3,4-dihydro-2H-quinolin-1-yl)-methanone], the 50% effective concentration (EC50) in assay [2] worked out at 18.6 nM.
Consider `O=C(N1CCc2ccc([N+](=O)[O-])cc21)C12CC3CC(CC(C3)C1)C2` [Example 13, Adamantan-1-yl-(6-nitro-2,3-dihydro-indol-1-yl)-methanone], for which the EC50 in assay [1] was more than 10000 nM; in assay [2], 19.4 nM.
Consider `O=C(N1CCc2cc([N+](=O)[O-])ccc21)C12CC3CC(CC(C3)C1)C2` [Example 14, Adamantan-1-yl-(5-nitro-2,3-dihydro-indol-1-yl)-methanone], for which the results for the EC50 in assay [1] (setting [3]) and in assay [2] (setting [4]) were more than 10000 nM and 82 nM, respectively.
For the compound `O=C(N1CCc2cc(Br)ccc21)C12CC3CC(CC(C3)C1)C2` [Example 15, Adamantan-1-yl-(5-bromo-2,3-dihydro-indol-1-yl)-methanone], the 50% effective concentration (EC50) was more than 10000 nM in assay [1] and 11.5 nM in assay [2].
The matching figures for `O=C(N1CCc2c(F)cc(F)cc21)C12CC3CC(CC(C3)C1)C2` [Example 16, Adamantan-1-yl-(4,6-difluoro-2,3-dihydro-indol-1-yl)-methanone]: more than 10000 nM and 54 nM.
With `O=C(N1CCc2ccc(C(F)(F)F)cc21)C12CC3CC(CC(C3)C1)C2` [Example 17, Adamantan-1-yl-(6-trifluoromethyl-2,3-dihydro-indol-1-yl)-methanone], in assay [2], the EC50 was 14.6 nM.
`O=C(N1CCc2cc(F)ccc21)C12CC3CC(CC(C3)C1)C2` [Example 18, Adamantan-1-yl-(5-fluoro-2,3-dihydro-indol-1-yl)-methanone]: the concentration giving a half-maximal response (EC50) in assay [2] (setting [4]) is 4.6 nM.
Turning to `COC(=O)c1ccc2c(c1)CCN2C(=O)C12CC3CC(CC(C3)C1)C2` [Example 19, 1-(Adamantane-1-carbonyl)-2,3-dihydro-1H-indole-5-carboxylic acid methyl ester], the EC50 in assay [1] (setting [3]) is more than 10000 nM; in assay [2] (setting [4]), 70.6 nM.
The like results for `O=C(N1CCc2c1ccnc2Cl)C12CC3CC(CC(C3)C1)C2` [Example 20, Adamantan-1-yl-(4-chloro-2,3-dihydro-pyrrolo[3,2-c]pyridin-1-yl)-methanone] were, in that order, more than 10000 nM and 273 nM.
In the case of `O=C(N1Cc2ccccc2C1)C12CC3CC(CC(C3)C1)C2` [Example 21, Adamantan-1-yl-(1,3-dihydro-isoindol-2-yl)-methanone], in assay [2] (setting [4]), the EC50 is 19.9 nM.
For `COc1cccc2c1N(C(=O)C13CC4CC(CC(C4)C1)C3)CC2` [Example 22, Adamantan-1-yl-(7-methoxy-2,3-dihydro-indol-1-yl)-methanone], the results for the EC50 in assay [1] and in assay [2] were more than 10000 nM and 26.4 nM, respectively.
Turning to `CC1(C)CN(C(=O)C23C[C@H]4C[C@@H](C2)C[C@@H](C3)C4)c2ccccc21` [Example 23, Adamantan-1-yl-(3,3-dimethyl-2,3-dihydro-indol-1-yl)-methanone], the EC50 is more than 10000 nM in assay [1] and 15.9 nM in assay [2].
Consider `COC(=O)c1cccc2c1CCN2C(=O)[C@]12C[C@H]3C[C@H](C[C@H](C3)C1)C2` [Example 24, 1-(Adamantane-1-carbonyl)-2,3-dihydro-1H-indole-4-carboxylic acid methyl ester], for which the EC50 in assay [1] was more than 10000 nM; in assay [2], 42.1 nM.
As for `Cc1cccc2c1N(C(=O)C13CC4CC(CC(C4)C1)C3)CC2` [Example 28, Adamantan-1-yl-(7-methyl-2,3-dihydro-indol-1-yl)-methanone], a half-maximal response in assay [2] (EC50) required 55.7 nM.
Take `Cc1cccc2c1CCN2C(=O)C12CC3CC(CC(C3)C1)C2` [Example 30, Adamantan-1-yl-(4-methyl-2,3-dihydro-indol-1-yl)-methanone]: the EC50 in assay [2] (setting [4]) was 4.3 nM.
Regarding `COCCOC1CCN(C(=O)C23CC4CC(CC(C4)C2)C3)c2ccccc21` (stereo not drawn) [Example 33, Adamantan-1-yl-[4-(2-methoxy-ethoxy)-3,4-dihydro-2H-quinolin-1-yl]-methanone], the concentration giving a half-maximal response (EC50) in assay [2] stood at 21.3 nM.
On to `COC1CCN(C(=O)C23CC4CC(CC(C4)C2)C3)c2ccccc21` (stereo not drawn) [Example 36, Adamantan-1-yl-(4-methoxy-3,4-dihydro-2H-quinolin-1-yl)-methanone], for which, in assay [2] (setting [4]), the EC50 is 27.2 nM.
On to `O=C(N1CCc2ccccc21)C12CC3CC(CC(O)(C3)C1)C2` [Example 41, (2,3-Dihydro-indol-1-yl)-(3-hydroxy-adamantan-1-yl)-methanone], for which the EC50 in assay [2] (setting [4]) was 492 nM.
Take `O=C(NC12CC3CC(CC(C3)C1)C2)N1Cc2ccccc2C1` [Example 42, 1,3-Dihydro-isoindole-2-carboxylic acid adamantan-1-ylamide]: the EC50 in assay [2] (setting [4]) amounted to 22.1 nM.
